Test results as given in US20100240595A1, “Improved Antitumoral Treatments” (PHARMA MAR ,S.A., priority 2007, published 2010).
Starred links: 1 amine or outer side, 2 acyl side, 3 side chain; linkers in the order of their positions; H or OH if unused. Positions of bridges follow the written chain, without caps; N, C: chain ends. Non-standard residues stand in square brackets, D forms with d. Residues, ends and D or L forms follow the SMILES beside them. *: point of attachment. X1 = CC[C@H](C)[C@@H](N[*:1])[C@@H](O)CC(=O)O[C@H](C(=O)[C@H](C)C(=O)[*:2])C(C)C; NMeY = CN[C@@H](Cc1ccc(O)cc1)C(=O)O; dNMeL = CN[C@H](CC(C)C)C(=O)O; Pyruvoyl = CC(=O)C(=O)*

Assays:
[1] = tested on: AML and ALL samples from pediatric patients; conditions: 5 nM; de novo or relapsed ALL and AML; cited from earlier work
MIA PaCa-2 cell line = assay: In vitro cytotoxicity, MTS/PMS assay, single agents; assay type: cell-based; conditions: Homo sapiens; MIA PaCa-2, 96 hours exposure, MTS/PMS viability
Procedure: (§1) PANC-1 (ATCC CRL-1469) and MIA PaCa-2 (ATCC CRL-1420) cell lines obtained from ATCC (Rockville, Md.) were used to check the cytotoxicity of Aplidine and Gemcitabine hydrochloride salt in human pancreas carcinoma cell lines. These cell lines were maintained in Dulbecco's modified Eagle medium with 4 mmol/L glutamine containing 10% Fetal Bovine Serum (FBS), and 1% Penicillin/Streptomycin solution, at 37° C. in humidified atmosphere of 5% CO2.
(§2) Four thousand cells/well were plated in a 96/wells tissue culture plate and exposed to different concentrations of Aplidine or Gemcitabine for 96 hours at 37° C. and 5% CO2. At the end of the incubation the viability of the cells was tested with the MTS/PMS assay (Riss T L and Moravec R A, Mol. Biol. Cell, 1992, 3, 184a). Cell viability was correlated to the amount of formazan quantified spectrophotometrically at 450 nm (reference wavelength 670 nm) using a microplate reader (SpectraMax® Plus^384, Molecular Devices, Sunnyvale, Calif.).

PANC-1 cell line = assay: as above; assay type: cell-based; conditions: Homo sapiens; PANC-1, 96 hours exposure, MTS/PMS viability
Procedure: as §1, §2

PANC-1 cells = assay: Pancreatic cancer xenograft model, tumor volume; assay type: in vivo, NCR Nu/Nu mice; conditions: median tumor volume
Excerpt: Pathogen-free NCR Nu/Nu mice, of 5 to 6 weeks old and purchased from Taconic Farms (Germantown, N.Y.), were housed in microisolator cages under specific pathogen-free conditions. The animals were provided autoclaved food and water ad libitum.
Mice were inoculated subcutaneously in the right flank with 0.5×10^7 PANC-1 cells containing 10% matrigel.
As mentioned before, the vehicle used for the administration of Aplidine contained 15% Cremophor EL/15% Ethanol/70% WFI diluted in saline, whereas Gemcitabine was prepared in saline in order to be administered.
Both drugs were administered intra-peritoneally. […] Tumor size and weight of the animals were recorded every other day, starting from the first day of treatment. Tumor volume was calculated according to the formula:
tumor volume (mm^3)=(longer diameter)×[(shorter diameter)^2]/2.
Comparison of the median tumor volume in the treatment groups (T) to the median tumor volume in the control group (C) [T/C] on day 20 was used for evaluation of tumor efficacy. % T/C [T/C×100%] for each treatment is reported in Table 3.

| SMILES | In vitro cytotoxic activity [1] | IC50 (MIA PaCa-2 cell line) [nM] | IC50 (PANC-1 cell line) [nM] | % T/C on day 20 (PANC-1 cells; Aplidine 0.6 mg/kg on day 1 and 8, intra-peritoneally) [%] | % T/C on day 20 (PANC-1 cells; Gemcitabine 250 mg/kg on day 1, 4, 8 & 12, intra-peritoneally) [%] |
| --- | --- | --- | --- | --- | --- |
| CC[C@H](C)[C@H]1NC(=O)[C@@H](NC(=O)[C@@H](CC(C)C)N(C)C(=O)[C@@H]2CCCN2C(=O)C(C)=O)[C@@H](C)OC(=O)[C@H](Cc2ccc(OC)cc2)N(C)C(=O)[C@@H]2CCCN2C(=O)[C@H](CC(C)C)NC(=O)[C@@H](C)C(=O)[C@H](C(C)C)OC(=O)C[C@@H]1O [Aplidine] (Pyruvoyl-P[dNMeL]T[X1]LP[NMeY](Me); ester 3-C) | cytotoxic activity | 1 | 1 | 23 |  |
| Nc1ccn([C@@H]2O[C@H](CO)[C@@H](O)C2(F)F)c(=O)n1 [Gemcitabine, reference compound] |  | 150 | 1000 |  | 45 |
